# Measurements as given in ChEMBL document CHEMBL1201862, “PubChem BioAssay data set” (2004).
#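 Exposure lasted 48 hours, with cells grown in 96-well plates and compounds tested at five concentrations. Abbreviation: GI50, concentration required for 50% inhibition of growth.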 Calls of active or inactive are those of the source. No stated cut-off is given here; in the data, active = GI50 up to about 1.1 µM and inactive = higher.
# Legend:
# Assay in all cases: NCI tumour cell line growth inhibition, 48 h
# A498 = test system: A498
# A549 = test system: A549
# CAKI-1 = test system: CAKI-1
# CCRF-CEM = test system: CCRF-CEM
# COLO 205 = test system: COLO 205
# DLD-1 = test system: DLD-1
# DMS-114 = test system: DMS-114
# DMS-273 = test system: DMS-273
# EKVX = test system: EKVX
# HCC 2998 = test system: HCC 2998
# HCT-116 = test system: HCT-116
# HCT-15 = test system: HCT-15
# HL-60 = test system: HL-60
# HOP-18 = test system: HOP-18
# HOP-62 = test system: HOP-62
# HOP-92 = test system: HOP-92
# HT-29 = test system: HT-29
# IGROV-1 = test system: IGROV-1
# K562 = test system: K562
# KM-20L2 = test system: KM-20L2
# KM12 = test system: KM12
# LOX IMVI = test system: LOX IMVI
# M19-MEL = test system: M19-MEL
# MCF7 = test system: MCF7
# MOLT-4 = test system: MOLT-4
# Malme-3M = test system: Malme-3M
# NCI-H226 = test system: NCI-H226
# NCI-H23 = test system: NCI-H23
# NCI-H460 = test system: NCI-H460
# NCI-H522 = test system: NCI-H522
# NCI/ADR-RES = test system: NCI/ADR-RES
# OVCAR-3 = test system: OVCAR-3
# OVCAR-4 = test system: OVCAR-4
# OVCAR-5 = test system: OVCAR-5
# OVCAR-8 = test system: OVCAR-8
# RPMI-8226 = test system: RPMI-8226
# RXF 393 = test system: RXF 393
# SF-268 = test system: SF-268
# SF-295 = test system: SF-295
# SF-539 = test system: SF-539
# SK-MEL-28 = test system: SK-MEL-28
# SK-MEL-2 = test system: SK-MEL-2
# SK-MEL-5 = test system: SK-MEL-5
# SK-OV-3 = test system: SK-OV-3
# SN12C = test system: SN12C
# SNB-19 = test system: SNB-19
# SNB-75 = test system: SNB-75
# SNB-78 = test system: SNB-78
# SW-620 = test system: SW-620
# U-251 = test system: U-251
# UACC-257 = test system: UACC-257
# UACC-62 = test system: UACC-62
# UO-31 = test system: UO-31
# XF498 = test system: XF498
# 786-0 = test system: 786-0
# ACHN = test system: ACHN
# LXFL 529 = test system: LXFL 529
# M14 = test system: M14
# TK-10 = test system: TK-10
structure (smiles),measurement,setting,value
Cc1c2ccncc2c(C)c2c1[nH]c1ccccc12 [ELLIPTECINE],GI50,A498,0.794 µM (active)
same,GI50,A549,0.504 µM (active)
same,GI50,CAKI-1,1.21 µM (inactive)
same,GI50,CCRF-CEM,0.411 µM (active)
same,GI50,COLO 205,0.502 µM (active)
same,GI50,DLD-1,0.509 µM (active)
same,GI50,DMS-114,0.94 µM (active)
same,GI50,DMS-273,0.378 µM (active)
same,GI50,EKVX,0.933 µM (active)
same,GI50,HCC 2998,2.68 µM (inactive)
same,GI50,HCT-116,0.272 µM (active)
same,GI50,HCT-15,0.402 µM
same,GI50,HL-60,0.883 µM (active)
same,GI50,HOP-18,1.49 µM (inactive)
same,GI50,HOP-62,0.818 µM (active)
same,GI50,HOP-92,0.538 µM (active)
same,GI50,HT-29,0.863 µM (active)
same,GI50,IGROV-1,0.729 µM (active)
same,GI50,K562,0.47 µM (active)
same,GI50,KM-20L2,0.548 µM (active)
same,GI50,KM12,0.473 µM (active)
same,GI50,LOX IMVI,0.536 µM (active)
same,GI50,M19-MEL,0.857 µM (active)
same,GI50,MCF7,0.571 µM (active)
same,GI50,MOLT-4,0.256 µM (active)
same,GI50,Malme-3M,2.01 µM (inactive)
same,GI50,NCI-H226,1.42 µM (inactive)
same,GI50,NCI-H23,0.656 µM (active)
same,GI50,NCI-H460,0.15 µM (active)
same,GI50,NCI-H522,1.16 µM (inactive)
same,GI50,NCI/ADR-RES,0.659 µM (active)
same,GI50,OVCAR-3,0.322 µM (active)
same,GI50,OVCAR-4,0.802 µM (active)
same,GI50,OVCAR-5,1.46 µM (inactive)
same,GI50,OVCAR-8,0.406 µM (active)
same,GI50,RPMI-8226,0.617 µM (active)
same,GI50,RXF 393,0.288 µM (active)
same,GI50,SF-268,0.698 µM (active)
same,GI50,SF-295,0.805 µM (active)
same,GI50,SF-539,0.867 µM (active)
same,GI50,SK-MEL-28,1.5 µM (inactive)
same,GI50,SK-MEL-2,2.77 µM (inactive)
same,GI50,SK-MEL-5,0.944 µM (active)
same,GI50,SK-OV-3,1.61 µM (inactive)
same,GI50,SN12C,1.06 µM (active)
same,GI50,SNB-19,0.826 µM (active)
same,GI50,SNB-75,1.47 µM (inactive)
same,GI50,SNB-78,1.48 µM (inactive)
same,GI50,SW-620,0.36 µM (active)
same,GI50,U-251,0.771 µM (active)
same,GI50,UACC-257,1.42 µM (inactive)
same,GI50,UACC-62,1.48 µM (inactive)
same,GI50,UO-31,1.95 µM (inactive)
same,GI50,XF498,1.81 µM (inactive)
Clc1cc2nsnc2c(Cl)n1,GI50,786-0,16.9 µM (inactive)
same,GI50,A498,> 100 µM (inactive)
same,GI50,A549,50 µM (inactive)
same,GI50,ACHN,32.5 µM (inactive)
same,GI50,CAKI-1,10.8 µM (inactive)
same,GI50,CCRF-CEM,6.03 µM (inactive)
same,GI50,COLO 205,15.3 µM (inactive)
same,GI50,DLD-1,20.3 µM (inactive)
same,GI50,DMS-114,15.6 µM (inactive)
same,GI50,DMS-273,36.3 µM (inactive)
same,GI50,EKVX,> 100 µM (inactive)
same,GI50,HCC 2998,> 100 µM (inactive)
same,GI50,HCT-15,21.3 µM
same,GI50,HL-60,14.1 µM (inactive)
same,GI50,HOP-18,17.5 µM (inactive)
same,GI50,HOP-62,> 100 µM (inactive)
same,GI50,HOP-92,16.6 µM (inactive)
same,GI50,HT-29,21.7 µM (inactive)
same,GI50,IGROV-1,26.2 µM (inactive)
same,GI50,K562,5.41 µM (inactive)
same,GI50,KM-20L2,37.6 µM (inactive)
same,GI50,KM12,47.2 µM (inactive)
same,GI50,LOX IMVI,33 µM (inactive)
same,GI50,LXFL 529,14.4 µM (inactive)
same,GI50,M14,15.2 µM (inactive)
same,GI50,M19-MEL,24.7 µM (inactive)
same,GI50,MOLT-4,14.2 µM (inactive)
same,GI50,Malme-3M,16.3 µM (inactive)
same,GI50,NCI-H226,20.6 µM (inactive)
same,GI50,NCI-H23,19.1 µM (inactive)
same,GI50,NCI-H460,38.5 µM (inactive)
same,GI50,NCI-H522,18.4 µM (inactive)
same,GI50,OVCAR-3,17.9 µM (inactive)
same,GI50,OVCAR-4,17.1 µM (inactive)
same,GI50,OVCAR-5,43 µM (inactive)
same,GI50,RPMI-8226,22.2 µM (inactive)
same,GI50,SF-268,26.4 µM (inactive)
same,GI50,SF-295,41.5 µM (inactive)
same,GI50,SF-539,22.9 µM (inactive)
same,GI50,SK-MEL-28,20.1 µM (inactive)
same,GI50,SK-MEL-2,17.2 µM (inactive)
same,GI50,SK-MEL-5,16.9 µM (inactive)
same,GI50,SK-OV-3,2.62 µM (inactive)
same,GI50,SNB-19,19 µM (inactive)
same,GI50,SNB-78,56.4 µM (inactive)
same,GI50,SW-620,10.2 µM (inactive)
same,GI50,TK-10,20.9 µM (inactive)
same,GI50,U-251,20.3 µM (inactive)
same,GI50,UACC-257,26.7 µM (inactive)
same,GI50,UACC-62,26.5 µM (inactive)
same,GI50,UO-31,20.6 µM (inactive)
same,GI50,XF498,17.3 µM (inactive)
O=C1c2ccccc2C(O)(C(=O)O)C1(O)CC=C(Cl)Cl (stereo not given),GI50,A498,> 125 µM (inactive)
same,GI50,A549,> 125 µM (inactive)
same,GI50,CAKI-1,> 125 µM (inactive)
same,GI50,CCRF-CEM,> 125 µM (inactive)
same,GI50,COLO 205,> 125 µM (inactive)
same,GI50,DLD-1,> 125 µM (inactive)
same,GI50,DMS-114,> 125 µM (inactive)
same,GI50,DMS-273,> 125 µM (inactive)
same,GI50,EKVX,> 125 µM (inactive)
same,GI50,HCC 2998,> 125 µM (inactive)
same,GI50,HCT-116,> 125 µM (inactive)
same,GI50,HCT-15,> 125 µM
same,GI50,HL-60,> 125 µM (inactive)
same,GI50,HOP-18,> 125 µM (inactive)
same,GI50,HOP-62,> 125 µM (inactive)
same,GI50,HOP-92,> 74.6 µM (inactive)
same,GI50,HT-29,> 125 µM (inactive)
same,GI50,IGROV-1,> 125 µM (inactive)
same,GI50,K562,> 125 µM (inactive)
same,GI50,KM-20L2,> 125 µM (inactive)
same,GI50,KM12,> 125 µM (inactive)
same,GI50,LOX IMVI,> 125 µM (inactive)
same,GI50,M19-MEL,> 125 µM (inactive)
same,GI50,MCF7,> 125 µM (inactive)
same,GI50,MOLT-4,> 125 µM (inactive)
same,GI50,Malme-3M,> 125 µM (inactive)
same,GI50,NCI-H226,> 125 µM (inactive)
same,GI50,NCI-H23,> 125 µM (inactive)
same,GI50,NCI-H460,> 125 µM (inactive)
same,GI50,NCI-H522,> 125 µM (inactive)
same,GI50,NCI/ADR-RES,> 125 µM (inactive)
same,GI50,OVCAR-3,> 125 µM (inactive)
same,GI50,OVCAR-4,> 125 µM (inactive)
same,GI50,OVCAR-5,> 125 µM (inactive)
same,GI50,OVCAR-8,> 125 µM (inactive)
same,GI50,RPMI-8226,> 125 µM (inactive)
same,GI50,RXF 393,> 125 µM (inactive)
same,GI50,SF-268,> 125 µM (inactive)
same,GI50,SF-295,> 125 µM (inactive)
same,GI50,SF-539,> 125 µM (inactive)
same,GI50,SK-MEL-28,> 125 µM (inactive)
same,GI50,SK-MEL-2,> 125 µM (inactive)
same,GI50,SK-MEL-5,> 125 µM (inactive)
same,GI50,SK-OV-3,> 125 µM (inactive)
same,GI50,SN12C,> 125 µM (inactive)
same,GI50,SNB-19,> 78.9 µM (inactive)
same,GI50,SNB-75,> 125 µM (inactive)
same,GI50,SNB-78,> 125 µM (inactive)
same,GI50,SW-620,> 125 µM (inactive)
same,GI50,U-251,> 28.2 µM (inactive)
same,GI50,UACC-257,> 125 µM (inactive)
same,GI50,UACC-62,> 125 µM (inactive)
same,GI50,UO-31,> 112 µM (inactive)
same,GI50,XF498,> 125 µM (inactive)
